Legend:
[1] = system: wild oat; test: Test B pre/postemergence wild oat; type: in vivo, Avena fatua
Summary of the method: (§1)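 Test chemicals in a non-phytotoxic solvent mixture with surfactant were sprayed preemergence onto planted seeds and postemergence onto plants 2 to 18 cm tall (1- to 4-leaf stage). After twelve to sixteen days in a greenhouse, injury was visually rated against untreated controls from 0 (no effect) to 10 (complete control).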

[2] = system: pigweed; test: Test B pre/postemergence pigweed; type: in vivo, Amaranthus retroflexus
Summary of the method: as §1

[3] = system: wheat; test: Test B pre/postemergence wheat; type: in vivo, Triticum aestivum
Summary of the method: as §1

[4] = system: giant foxtail; test: Test B pre/postemergence giant foxtail; type: in vivo, Setaria faberii
Summary of the method: as §1

[5] = system: velvetleaf; test: Test B pre/postemergence velvetleaf; type: in vivo, Abutilon theophrasti
Summary of the method: as §1

[6] = system: cocklebur; test: Test B pre/postemergence cocklebur; type: in vivo, Xanthium strumarium
Summary of the method: as §1

[7] = system: blackgrass; test: Test B pre/postemergence blackgrass; type: in vivo, Alopecurus myosuroides
Summary of the method: as §1

[8] = system: purple nutsedge; test: Test B pre/postemergence purple nutsedge; type: in vivo, Cyperus rotundus
Summary of the method: as §1

[9] = system: surinam grass; test: Test B pre/postemergence surinam grass; type: in vivo, Brachiaria decumbens
Summary of the method: as §1

[10] = system: soybean; test: Test B pre/postemergence soybean; type: in vivo, Glycine max
Summary of the method: as §1

[11] = system: crabgrass; test: Test B pre/postemergence crabgrass; type: in vivo, Digitaria sanguinalis
Summary of the method: as §1

[12] = system: bedstraw; test: Test B pre/postemergence bedstraw; type: in vivo, Galium aparine
Summary of the method: as §1

[13] = system: morningglory; test: Test B pre/postemergence morningglory; type: in vivo, Ipomoea hederacea
Summary of the method: as §1

[14] = system: corn; test: Test B pre/postemergence corn; type: in vivo, Zea mays
Summary of the method: as §1

[15] = system: rape; test: Test B pre/postemergence rape; type: in vivo, Brassica napus
Summary of the method: as §1

[16] = Postemergence, Rate 62 g/ha, scale 0 to 10, 0 is no effect, 10 is complete control
[17] = Postemergence, Rate 250 g/ha, scale 0 to 10, 0 no effect, 10 complete control
[18] = Preemergence, Rate 62 g/ha, scale 0 to 10 (0 no effect, 10 complete control)
[19] = Preemergence, Rate 125 g/ha, scale 0 to 10 (0 no effect, 10 complete control)
[20] = Preemergence, Rate 250 g/ha, scale of 0 to 10 where 0 is no effect and 10 is complete control
[21] = Preemergence, Rate 500 g/ha, scale 0 (no effect) to 10 (complete control)
[22] = Rate 125 g/ha, Postemergence, scale 0 to 10, 0 no effect, 10 complete control
[23] = Rate 500 g/ha, Postemergence, scale 0 to 10, 0 no effect, 10 complete control

For `Cc1cc(C)c(-n2c(=O)on(C(=O)N(c3ccc(F)cc3)C(C)C)c2=O)c(C)c1` [Compound 60], the “Wild oats plant response rating” value [1, 16] was 0, the “Wild oats plant response rating” value [1, 17] was 0 and the “Wild oats plant response rating” value [1, 18] was 0. For the same compound, the “Plant response rating, Wild oats” value [1, 19] was 0, the “Plant response rating, Wild oats” value [1, 20] was 0 and the “Wild oats plant response rating” value [1, 21] was 0. For the same compound, the “Wild oats plant response rating” value [1, 22] was 0, the “Wild oats plant response rating” value [1, 23] was 0 and the “Redroot pigweed plant response rating” value [2, 16] was 2. The “Redroot pigweed plant response rating” value [2, 17] was 4, the “Redroot pigweed plant response rating” value [2, 18] was 0 and the “Plant response rating, Redroot pigweed” value [2, 19] was 0. For the same compound, the “Plant response rating, Redroot pigweed” value [2, 20] was 0, the “Redroot pigweed plant response rating” value [2, 21] was 0 and the “Redroot pigweed plant response rating” value [2, 22] was 4. The “Redroot pigweed plant response rating” value [2, 23] was 6, the “Wheat plant response rating” value [3, 16] was 0 and the “Wheat plant response rating” value [3, 17] was 0. The “Wheat plant response rating” value [3, 18] was 0, the “Plant response rating, Wheat” value [3, 19] was 0 and the “Plant response rating, Wheat” value [3, 20] was 0. The “Wheat plant response rating” value [3, 21] was 0, the “Wheat plant response rating” value [3, 22] was 0 and the “Wheat plant response rating” value [3, 23] was 0. For the same compound, the “Giant foxtail plant response rating” value [4, 16] was 0, the “Giant foxtail plant response rating” value [4, 17] was 0 and the “Giant foxtail plant response rating” value [4, 18] was 3. For the same compound, the “Plant response rating, Giant foxtail” value [4, 19] was 3, the “Plant response rating, Giant foxtail” value [4, 20] was 4 and the “Giant foxtail plant response rating” value [4, 21] was 5. For the same compound, the “Giant foxtail plant response rating” value [4, 22] was 0, the “Giant foxtail plant response rating” value [4, 23] was 0 and the “Velvetleaf plant response rating” value [5, 16] was 0. For the same compound, the “Velvetleaf plant response rating” value [5, 17] was 0, the “Velvetleaf plant response rating” value [5, 18] was 0 and the “Plant response rating, Velvetleaf” value [5, 19] was 0. The “Plant response rating, Velvetleaf” value [5, 20] was 0, the “Velvetleaf plant response rating” value [5, 21] was 0 and the “Velvetleaf plant response rating” value [5, 22] was 0. For the same compound, the “Velvetleaf plant response rating” value [5, 23] was 0, the “Cocklebur plant response rating” value [6, 16] was 0 and the “Cocklebur plant response rating” value [6, 17] was 0. For the same compound, the “Cocklebur plant response rating” value [6, 18] was 0, the “Plant response rating, Cocklebur” value [6, 19] was 0 and the “Cocklebur plant response rating” value [6, 22] was 0. The “Cocklebur plant response rating” value [6, 23] was 0, the “Blackgrass plant response rating” value [7, 16] was 0 and the “Blackgrass plant response rating” value [7, 17] was 0. For the same compound, the “Blackgrass plant response rating” value [7, 18] was 0, the “Plant response rating, Blackgrass” value [7, 19] was 0 and the “Plant response rating, Blackgrass” value [7, 20] was 0. The “Blackgrass plant response rating” value [7, 21] was 0, the “Blackgrass plant response rating” value [7, 22] was 0 and the “Blackgrass plant response rating” value [7, 23] was 0. The “Nutsedge plant response rating” value [8, 16] was 0, the “Nutsedge plant response rating” value [8, 17] was 0 and the “Nutsedge plant response rating” value [8, 18] was 0. The “Plant response rating, Nutsedge” value [8, 19] was 0, the “Plant response rating, Nutsedge” value [8, 20] was 0 and the “Nutsedge plant response rating” value [8, 21] was 0. For the same compound, the “Nutsedge plant response rating” value [8, 22] was 0, the “Nutsedge plant response rating” value [8, 23] was 0 and the “B. signalgrass plant response rating” value [9, 16] was 0. The “B. signalgrass plant response rating” value [9, 17] was 0, the “B. signalgrass plant response rating” value [9, 18] was 0 and the “Plant response rating, B. signalgrass” value [9, 19] was 0. The “Plant response rating, B. signalgrass” value [9, 20] was 0, the “B. signalgrass plant response rating” value [9, 21] was 0 and the “B. signalgrass plant response rating” value [9, 22] was 0. The “B. signalgrass plant response rating” value ([9]; Rate 500 g/ha, Postemergence, scale of 0 to 10 where 0 is no effect and 10 is complete control) was 0, the “Soybean plant response rating” value [10, 16] was 2 and the “Soybean plant response rating” value [10, 17] was 3. For the same compound, the “Soybean plant response rating” value [10, 18] was 0, the “Plant response rating, Soybean” value [10, 19] was 0 and the “Plant response rating, Soybean” value [10, 20] was 0. For the same compound, the “Soybean plant response rating” value [10, 21] was 0, the “Soybean plant response rating” value [10, 22] was 3 and the “Soybean plant response rating” value [10, 23] was 3. The “Crabgrass plant response rating” value [11, 16] was 0, the “Crabgrass plant response rating” value [11, 17] was 1 and the “Crabgrass plant response rating” value [11, 18] was 0. For the same compound, the “Plant response rating, Crabgrass” value [11, 19] was 1, the “Plant response rating, Crabgrass” value [11, 20] was 1 and the “Crabgrass plant response rating” value [11, 21] was 1. The “Crabgrass plant response rating” value [11, 22] was 0, the “Crabgrass plant response rating” value [11, 23] was 2 and the “Bedstraw plant response rating” value [12, 17] was 7. For the same compound, the “Bedstraw plant response rating” value [12, 18] was 0, the “Plant response rating, Bedstraw” value [12, 19] was 0 and the “Plant response rating, Bedstraw” value [12, 20] was 0. For the same compound, the “Bedstraw plant response rating” value [12, 21] was 5, the “Bedstraw plant response rating” value [12, 22] was 7 and the “Bedstraw plant response rating” value [12, 23] was 7. For the same compound, the “Morningglory plant response rating” value [13, 16] was 1, the “Morningglory plant response rating” value [13, 17] was 2 and the “Morningglory plant response rating” value [13, 18] was 0. The “Plant response rating, Morningglory” value [13, 19] was 0, the “Plant response rating, Morningglory” value [13, 20] was 0 and the “Morningglory plant response rating” value [13, 21] was 0. For the same compound, the “Morningglory plant response rating” value [13, 22] was 2, the “Morningglory plant response rating” value [13, 23] was 2 and the “Corn plant response rating” value [14, 16] was 0. For the same compound, the “Corn plant response rating” value [14, 17] was 0, the “Corn plant response rating” value [14, 18] was 0 and the “Plant response rating, Corn” value [14, 19] was 0. The “Plant response rating, Corn” value [14, 20] was 0, the “Corn plant response rating” value [14, 21] was 0 and the “Corn plant response rating” value [14, 22] was 0. The “Corn plant response rating” value [14, 23] was 0, the “Rape plant response rating” value [15, 16] was 0 and the “Rape plant response rating” value [15, 17] was 0. For the same compound, the “Rape plant response rating” value [15, 18] was 0, the “Plant response rating, Rape” value [15, 19] was 0 and the “Plant response rating, Rape” value [15, 20] was 0. For the same compound, the “Rape plant response rating” value [15, 21] was 0, the “Rape plant response rating” value [15, 22] was 0 and the “Rape plant response rating” value [15, 23] was 4.
